We go through seven substances from patent publication US9863938B2, “Synthetic antibodies” (ARIZONA BOARD OF REGENTS, A BODY CORPORATE OF THE STATE OF …, priority 2006, dated 2018).

Read-outs that look alike come from different tables or passages of the source. Bridge positions count the residues as written; N and C are the ends. Ends that are not written are not given here. I, II: the chains in the order shown.

One data set addresses T1, human α-thrombin (Homo sapiens, UniProt P00734).
T1 construct: concentrations of human α-thrombin ranging from 0 to 100 nM
Nature of the data set: ELISA-type assay on wells coated with thrombin. Conditions: read-out: Dissociation constant estimated. The data set is classed as binding. The protocol: Binding to thrombin was evaluated in an ELISA-type assay. Wells of a 96 well plate were coated with 100 μL of 30 μg/mL human α-thrombin and incubated at 4 C overnight. The plate was washed twice with DDI H2O and passivated with 3% BSA in IX PBS buffer for 1 hour. The plate was shaken out and 50 μL of varying concentrations of analyte (DNA tile synbody, DNA tile with each aptamer with the other not present, and each aptamer alone, respectively) were incubated at RT for 1 hour. DNA tiles were biotin-modified at the 5′ end of one of the distal DNA strands 346 (see FIG. 26(a)). The plate was rinsed 10 times in IXPBS and 50 μL of 1:1000 dilution of streptavidin-HRP in 0.1% BSA in IX PBS was pipetted and incubated for 1 hour at RT. The plate was again rinsed and 50 μL of TMB was added and incubated at RT for 15 minutes. 50 μL of 0.5M HCl was added and the plate was read immediately. Results are shown in FIG. 27 for the DNA tile synbody 350; the DNA tile with Apt1 (SEQ ID NO: 20) but not Apt2 (SEQ ID NO: 21) present 352; the DNA tile with Apt2 but not Apt1 (SEQ ID NO: 20) present 356; Apt1 (SEQ ID NO: 20) alone 354; and Apt2 (SEQ ID NO: 21) alone 358. Dissociation constant values estimated from this assay were about 1 nM for the DNA tile synbody, about 10 nM for Apt1 (SEQ ID NO: 20) alone, and more than 1 μM for Apt2 (SEQ ID NO: 21) alone.

Data set [1] addresses T2, transferrin (Homo sapiens, UniProt P02787). Nature of the data set: SPR steady-state solution phase KD of candidate affinity elements, transferrin immobilized on Biacore T100 chip. The data set is classed as binding. The method, then: Transferrin was immobilized by amine-coupling to the carboxyl-functionalized surface of a Biacore T100 CMS Dextran SPR chip as illustrated in FIG. 11. A 1:1 mixture of EDC (0.4M 1-ethyl-3-(3-dimethylaminopropyl)-carbodiimide in water) and NHS (0.1M N-hydroxysuccinimide in water) was applied 300 at a flow rate of 5 to 10 μl/min for a contact time of about 6 to 10 minutes to activate the surface by conjugating […] 306 to the surface-exposed carboxyl groups. Transferrin 25 μg/ml in immobilization buffer selected for correct pH was then applied 302 at a flow rate of 5 to 10 μl/min for a contact time of about 5 to 10 minutes, allowing the amine functionality on the transferrin 308 to displace the activated NHS ester and bond to the surface via an amide bond. Finally, ethylene diamine (1 M ethylene diamine-HCl at pH 8.5) was applied at a flow rate of 5 to 10 μl/min for a contact time of about 6 to 7 minutes to deactivate any remaining reactive groups on the dextran chip surface. Flow rates and contact times are adjusted as necessary to provide the surface concentration of target desired for the intended application, and may vary by target. In general, for evaluating whether binding occurs, it is preferable to immobilize a relatively large quantity of target, and higher flow rates and/or longer contact times may be used. For determining kinetics, it is preferable to limit the amount of target immobilized so as to minimize rebinding and avidity effects, and lower flow rates and/or contact times may be used.
Candidate affinity elements for the transferrin synbody TRF 19 (SEQ ID NO: 1), TRF21 (SEQ ID NO: 3), TRF23 (SEQ ID NO: 5), TRF24 (SEQ ID NO: 6), TRF25 (SEQ ID NO: 7), and TRF26 (SEQ ID NO: 8) were individually evaluated for solution phase KD with respect to transferrin by SPR analysis. Because the off rates for these polypeptides were very high, KD values were estimated by measuring steady-state response for at least five concentrations in a two-fold dilution series, each concentration tested in duplicate. For each experiment, response data were processed using a reference surface to correct for bulk refractive index changes and any nonspecific binding. Data were also double referenced using responses from blank running buffer injections. Each experiment was conducted at 25° C. using PBST (0.01M Phosphate Buffered Saline, 0.138M NaCl, 0.0027M KCl, 0.05% surfactant Tween20, pH 7.4) as the running buffer on a Biacore T100 instrument. Analytes were injected for 60 s at a flow rate of 30 μl/min. The antigen surfaces were regenerated with 30 s consecutive pulses of NaOH/NaCl (50 mM NaOH in IM NaCl) and Glycine (10 mM glycine —HCl, pH 2.5).
(SPR reads the build-up and loss of mass on a sensor chip optically.)

In data set [2] the target is T2, transferrin. The data set is described as follows: SPR analysis of 1:1 polypeptide pairs for binding to distinct sites on immobilized target. Conditions: SPR response of pair mixture versus single polypeptides. The text has this: The transferrin target was immobilized on a Biacore T100 SPR chip, and candidate polypeptides were applied in 1:1 mixtures in pairs and response data obtained, in accordance with the methods described in Example 4 above.

Data set [3] deals with 8,000 human proteins (GST fusion). Nature of the data set: Invitrogen Protoarray Human Protein Microarray (8,000 features), fluorescence intensity of bound ligand. The data set is classed as binding. The method, then:
Two biotinylated anti-TRF synbodies (SYN23-26 and SYN 21-22) were applied to a protein microarray having 8,000 features (Invitrogen Protoarray Human Protein Microarray v. 4.0 for immune response biomarker profiling), each feature comprising a distinct human protein (GST fusion) adsorbed to a nitrocellulose coated slide. Application of the synbodies to the microarray was performed in accordance with manufacturer instructions: (see ProtoArray Human Protein Microarray, Invitrogen, Catalog no. PAH052401, Version B, 15 Dec. 2006, 25-0970, Users Manual.) After blocking the array with 1% BSA/PBS/0.1% Tween for 1 hour at 4 C with gentle shaking, 120 μl of probing buffer (1×PBS, 5 mM mgCl2, 0.5 mM DTT, 0.05% Triton X-100, 5% glycerol, 1% BSA) with synbody was applied to the array. The prescribed cover slip was placed over the array and adjusted to remove air bubbles. The array was incubated in a 50 ml conical tube, printed side up, for 1.5 hours at 4 C without shaking The array was then removed from the conical tube inserted diagonally into the array chamber, kept on ice. 8 ml probing buffer was added to the chamber wall. The cover slip was removed and the array was incubated in probing buffer for 1 minute on ice. […] The array was dried in the dark for 60 minutes at room temperature, after which it was scanned using a fluorescent microarray scanner and data was taken and analyzed.

The mark [4] stands for this setting: restates Table 3, read-out: solution phase affinities for transferrin, range of KD.
The mark [5] stands for this setting: estimated from steady-state SPR response, 25° C., PBST pH 7.4, read-out: Solution Phase KD.

T2 sequence (P02787 20-698, species assumed): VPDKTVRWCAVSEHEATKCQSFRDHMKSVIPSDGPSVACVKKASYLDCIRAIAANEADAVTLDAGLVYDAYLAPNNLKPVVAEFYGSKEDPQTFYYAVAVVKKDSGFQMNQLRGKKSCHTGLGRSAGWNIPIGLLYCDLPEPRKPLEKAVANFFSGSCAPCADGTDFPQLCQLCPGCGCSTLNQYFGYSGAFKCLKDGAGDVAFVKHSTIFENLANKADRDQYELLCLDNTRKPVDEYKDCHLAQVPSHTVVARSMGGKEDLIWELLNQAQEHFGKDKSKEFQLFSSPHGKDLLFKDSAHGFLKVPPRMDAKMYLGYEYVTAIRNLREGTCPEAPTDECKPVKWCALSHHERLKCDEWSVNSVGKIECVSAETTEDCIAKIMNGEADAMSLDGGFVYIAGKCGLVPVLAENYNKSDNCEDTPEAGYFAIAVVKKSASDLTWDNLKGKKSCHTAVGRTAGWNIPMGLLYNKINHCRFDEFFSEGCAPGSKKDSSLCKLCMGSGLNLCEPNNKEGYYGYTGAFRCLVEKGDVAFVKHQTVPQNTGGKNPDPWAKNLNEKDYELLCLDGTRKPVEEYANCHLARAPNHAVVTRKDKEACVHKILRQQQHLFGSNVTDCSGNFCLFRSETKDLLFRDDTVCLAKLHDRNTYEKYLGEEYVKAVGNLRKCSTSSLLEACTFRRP

In the case of “5′-AGTCCGTGGTAGGGCAGGTTGGGGTGACT-3′ [Apt1]”, in the data set with human α-thrombin, the Kd was around 10 nM. Still for that read-out and setting: then 5′-GGTTGGTGTGGTTGG-3′ [Apt2], with above 1000 nM. With AHKVVPQRQIRHAYNRYGSC [TRF26], the Kd at transferrin [1] (setting [4]) fell in the range of 50 to 100 µM. In addition, the “binding to distinct sites on target” value at transferrin [2] is “bind distinct sites on transferrin”. Turning to APYAPQQIHYWSTLGFKGSC [TRF25], the Kd on transferrin [1] (setting [5]) is around 60 µM. As to FRGWAHIFFGPHVIYRGGSC [TRF23], the Kd is around 50 µM on transferrin [1] (setting [5]) and 50 to 100 µM at transferrin [1] (setting [4]). Further, on transferrin [2], the “binding to distinct sites on target” value is listed as “bind distinct sites on transferrin”. In the case of “I: H-FRGWAHIFFGPHVIYRGGSGKC / II: H-AHKVVPQRQIRHAYNRYGSG (amide I:21-II:C) [SYN23-26]”, in data set [3], the “highest affinity target from library of 8,000” value is “PCCA” and the “targets bound with intensities higher than that of 1C10 for TRF” value is given as “seven targets”. Turning to QYHHFMNLKRQGRAQAYGSC [TRF21], the Kd at transferrin [1] (setting [5]) is around 60 µM.
